Source: patent US20230014907A1, “INHIBITORS OF APOL1 AND METHODS OF USING SAME” (Vertex Pharmaceuticals Incorporated, priority 2020, published 2023)

Molecular target: T1, G1 APOL1 (Homo sapiens, UniProt O14791, I384M/S342G)
T1 construct: expressed in transfected cells
T1 sequence (O14791 28-398 S342G/I384M): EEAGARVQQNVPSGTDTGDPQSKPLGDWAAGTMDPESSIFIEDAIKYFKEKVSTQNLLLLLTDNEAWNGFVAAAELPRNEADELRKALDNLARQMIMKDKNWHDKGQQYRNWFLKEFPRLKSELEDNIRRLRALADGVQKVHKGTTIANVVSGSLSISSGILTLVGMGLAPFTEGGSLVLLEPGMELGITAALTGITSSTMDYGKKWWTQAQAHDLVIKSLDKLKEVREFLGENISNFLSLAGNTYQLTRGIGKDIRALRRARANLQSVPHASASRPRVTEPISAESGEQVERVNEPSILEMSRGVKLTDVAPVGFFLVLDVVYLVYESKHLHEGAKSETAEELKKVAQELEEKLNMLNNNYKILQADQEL
Assay: Acute APOL1 Thallium Assay with Inducible Stable Clones of HEK 293 Cells
Format: cell-based
Conditions: HEK 293 inducible stable clones, G1 APOL1; read-out: Thallium Assay (IC50)
Procedure, shortened: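 HEK293 T-Rex cells with a stable tetracycline-inducible G1 APOL1 construct (clone DC3.25) were induced with tetracycline at plating, 26000 cells per well, then incubated at 37° C. They were loaded with an AM-ester thallium-sensitive dye and stimulated with Tl+. The fluorescence rise measured Tl+ influx through APOL1 pores.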

Row | Compound | IC50
1 | O=C(NCCc1c(-c2ccc(F)cc2)[nH]c2c(F)cc(F)cc12)c1cncnc1 [Compound 400] | > 1000 nM
2 | NC(=O)CNC(=O)CCCc1c(-c2ccc(F)cc2)[nH]c2c(F)cc(F)cc12 [Compound 246] | > 1000 nM
3 | O=C(NCCc1c(-c2ccc(F)cc2)[nH]c2c(F)cc(F)cc12)c1cscn1 [Compound 385] | > 1000 nM
4 | O=C(NC[C@@H](O)CO)OCCc1c(-c2ccc(F)cc2)[nH]c2c(F)cc(F)cc12 [Compound 476] | > 1000 nM
5 | O=C(NCCc1c(-c2ccc(F)cc2)[nH]c2c(F)cc(F)cc12)C1COC1 [Compound 413] | > 1000 nM
6 | CO[C@H]1C[C@@H](NC(=O)OCCc2c(-c3ccc(F)cc3)[nH]c3c(F)cc(F)cc23)C1 [Compound 496] | > 1000 nM
7 | O=C(NCCc1c(-c2ccc(F)cc2)[nH]c2c(F)cc(F)cc12)C(O)C(F)(F)F (stereo not shown) [Compound 327] | 250 to 1000 nM
8 | CNC(=O)C(=O)NCCc1c(-c2ccc(F)cc2)[nH]c2c(F)cc(F)cc12 [Compound 359] | > 1000 nM
9 | O=C(/C=C/c1c(-c2ccc(F)cc2)[nH]c2c(F)cc(F)cc12)N[C@H]1CCNC1=O [Compound 519, (E)-3-[5,7-difluoro-2-(4-fluorophenyl)-1H-indol-3-yl]-N-[(3S)-2-oxopyrrolidin-3-yl]prop-2-enamide] | < 250 nM
10 | O=C(NCCc1c(-c2ccc(F)cc2)[nH]c2c(F)cc(F)cc12)C(F)F [Compound 414] | > 1000 nM
11 | O=C(NCc1ncc[nH]1)OCCc1c(-c2ccc(F)cc2)[nH]c2c(F)cc(F)cc12 [Compound 484] | > 1000 nM
12 | C[C@H](O)CNC(=O)NCCc1c(-c2ccc(F)cc2)[nH]c2c(F)cc(F)cc12 [Compound 284] | > 1000 nM
13 | Cc1cc(F)c2[nH]c(-c3ccc(F)cc3)c(CCC(=O)N[C@@H](C)CO)c2c1 [Compound 222] | > 1000 nM
14 | O=C1N[C@H](C(=O)NCCc2c(-c3ccc(F)cc3)[nH]c3c(F)cc(F)cc23)CS1 [Compound 322] | > 1000 nM
15 | O=C1CCC[C@@H](C(=O)NCCc2c(-c3ccc(F)cc3)[nH]c3c(F)cc(F)cc23)N1 [Compound 329] | > 1000 nM
16 | C[C@@H](CO)NC(=O)N(C)CCc1c(-c2ccc(F)cc2)[nH]c2c(F)cc(F)cc12 [Compound 303] | > 1000 nM
17 | O=C(CCc1c(-c2ccc(F)cc2)[nH]c2c(F)cc(Cl)cc12)NC(CO)CO [Compound 212] | 250 to 1000 nM
18 | O=C(NCCc1c(-c2ccc(F)cc2)[nH]c2c(F)cc(F)cc12)OCC1(C(=O)O)CC1 [Compound 426, 1-[2-[5,7-difluoro-2-(4-fluorophenyl)-1H-indol-3-yl]ethylcarbamoyloxymethyl]cyclopropanecarboxylic acid] | > 1000 nM
19 | O=C(NCCc1c(-c2ccc(F)cc2)[nH]c2c(F)cc(F)cc12)[C@H]1CCOC1 [Compound 407] | > 1000 nM
20 | CC1(CO)CCN1C(=O)OCCc1c(-c2ccc(F)cc2)[nH]c2c(F)cc(F)cc12 (racemic) [Compound 480] | > 1000 nM
21 | COCC1(CNC(=O)NCCc2c(-c3ccc(F)cc3)[nH]c3c(F)cc(F)cc23)CC1 [Compound 292] | > 1000 nM
22 | N#CC(CO)NC(=O)CCc1c(-c2ccc(F)cc2)[nH]c2c(F)cc(Cl)cc12 (stereo not shown) [Compound 198] | 250 to 1000 nM
23 | O=C(NCCc1c(-c2ccc(F)cc2)[nH]c2c(F)cc(F)cc12)c1cncs1 [Compound 384] | > 1000 nM
24 | NC(=O)CCCc1c(-c2ccc(F)cc2)[nH]c2c(F)cc(F)cc12 [Compound 243] | > 1000 nM
25 | NC(=O)C(=O)NCCc1c(-c2ccc(F)cc2)[nH]c2c(F)cc(F)cc12 [Compound 364] | 250 to 1000 nM
26 | NC(=O)C1(NC(=O)CCc2c(-c3ccc(F)cc3)[nH]c3c(F)cc(F)cc23)CC1 [Compound 107] | 250 to 1000 nM

Row | Compound | IC50
27 | O=CNCCc1c(-c2ccc(F)cc2)[nH]c2c(F)cc(F)cc12 [Compound 419, N-[2-[5,7-difluoro-2-(4-fluorophenyl)-1H-indol-3-yl]ethyl]formamide] | > 1000 nM
28 | CC1(O)CC(NC(=O)OCCc2c(-c3ccc(F)cc3)[nH]c3c(F)cc(F)cc23)C1 (mixture of isomers) [Compound 495] | > 1000 nM
29 | O=C(NCCc1c(-c2ccc(F)cc2)[nH]c2c(F)cc(F)cc12)NCC1CCCO1 (stereo not shown) [Compound 297] | > 1000 nM
30 | O=C1CC(C(=O)NCCc2c(-c3ccc(F)cc3)[nH]c3c(F)cc(F)cc23)C(=O)N1 (stereo not shown) [Compound 333] | < 250 nM
31 | O=C(NC(CO)CO)OCCc1c(-c2ccc(F)cc2)[nH]c2c(F)cc(F)cc12 [Compound 437] | < 250 nM
32 | CC(=O)NCCc1c(-c2ccc(F)cc2)[nH]c2c(F)cc(F)cc12 [Compound 418, N-[2-[5,7-difluoro-2-(4-fluorophenyl)-1H-indol-3-yl]ethyl]acetamide] | > 1000 nM
33 | CC(C)(C)[C@H](CO)NC(=O)NCCc1c(-c2ccc(F)cc2)[nH]c2c(F)cc(F)cc12 [Compound 265] | > 1000 nM
34 | CC(CC(=O)NCCc1c(-c2ccc(F)cc2)[nH]c2c(F)cc(F)cc12)C(N)=O (racemic) [Compound 335] | > 1000 nM
35 | CC(CCO)NC(=O)CCc1c(-c2ccc(F)cc2)[nH]c2c(F)cc(F)cc12 (racemic) [Compound 147] | > 1000 nM
36 | CC(CO)NC(=O)OCCc1c(-c2ccc(F)cc2)[nH]c2c(F)cc(F)cc12 (racemic) [Compound 439] | < 250 nM
37 | CCC(O)CNC(=O)OCCc1c(-c2ccc(F)cc2)[nH]c2c(F)cc(F)cc12 (stereo not shown) [Compound 472] | 250 to 1000 nM
38 | Cn1cc(C(=O)NCCc2c(-c3ccc(F)cc3)[nH]c3c(F)cc(F)cc23)cn1 [Compound 391] | > 1000 nM
39 | NC(=O)[C@H](CO)NC(=O)OCCc1c(-c2ccc(F)cc2)[nH]c2c(F)cc(F)cc12 [Compound 475] | > 1000 nM
40 | Cn1cnc(CNC(=O)CCCc2c(-c3ccc(F)cc3)[nH]c3c(F)cc(F)cc23)c1 [Compound 244] | > 1000 nM
41 | CC(CCO)NC(=O)CCc1c(-c2ccc(F)cc2)[nH]c2c(F)cc(Cl)cc12 (racemic) [Compound 200] | 250 to 1000 nM
42 | O=C(NCCc1c(-c2ccc(F)cc2)[nH]c2c(F)cc(F)cc12)NCC1CC(F)(F)C1 [Compound 289] | > 1000 nM
43 | O=C(CCN1CCCC1=O)NCCc1c(-c2ccc(F)cc2)[nH]c2c(F)cc(F)cc12 [Compound 370] | > 1000 nM
44 | Cc1cc(F)c2[nH]c(-c3ccc(F)cc3)c(CCC(=O)NC(C)(CO)CO)c2c1 [Compound 225] | > 1000 nM
45 | Cc1cc(F)c2[nH]c(-c3ccc(F)cc3)c(CCC(=O)NC(CO)(CO)CO)c2c1 [Compound 217] | > 1000 nM
46 | COCCC(=O)NCCc1c(-c2ccc(F)cc2)[nH]c2c(F)cc(F)cc12 [Compound 412] | 250 to 1000 nM
47 | O=C(NCCc1c(-c2ccc(F)cc2)[nH]c2c(F)cc(F)cc12)NCC1(O)CCC1 [Compound 275] | > 1000 nM
48 | CC1(C(=O)NCCc2c(-c3ccc(F)cc3)[nH]c3c(F)cc(F)cc23)CCC(=O)NC1 (stereo not shown) [Compound 319] | > 1000 nM
49 | CC(C)(C)OC(=O)N[C@@H](CCO)C(=O)NCCc1c(-c2ccc(F)cc2)[nH]c2c(F)cc(F)cc12 [Compound 307] | > 1000 nM
50 | O=C(O)CNC(=O)NCCc1c(-c2ccc(F)cc2)[nH]c2c(F)cc(F)cc12 [Compound 285] | > 1000 nM
51 | C[C@H](NC(=O)NCCc1c(-c2ccc(F)cc2)[nH]c2c(F)cc(F)cc12)C(=O)O [Compound 281] | > 1000 nM
52 | C[C@H](O)[C@H](CO)NC(=O)OCCc1c(-c2ccc(F)cc2)[nH]c2c(F)cc(F)cc12 [Compound 442] | < 250 nM
